Laboratory results reported in paper PMC5719086, “Effective in vivo gene delivery with reduced toxicity, achieved by charge and fatty acid -modified cell penetrating peptide” (Scientific Reports, 2017).
Read-outs that look alike come from different tables or passages of the source. Square brackets hold non-standard residues; d marks the D form. Peptide text beside a SMILES is read from it. * marks the point of attachment. Docosanoyl = CCCCCCCCCCCCCCCCCCCCCC(=O)*; Stearoyl = CCCCCCCCCCCCCCCCCC(=O)*; Decanoyl = CCCCCCCCCC(=O)*; Orn = NCCC[C@H](N)C(=O)O

Columns and labels:
mouse RBC = assay: Hemolysis assay (activity towards cell membranes); format: cell-based; settings: 1 h 37 °C, triplicates
Protocol: The ability of the peptides to lyse the red blood cells (RBC) in PBS was used as a measure of membrane activity. To obtain fresh mouse RBC, blood was collected from the saphenous vein using sodium-heparinized (80 iu/ml ± 30%) blood collection capillaries (Marienfeld, Germany) and transferred to heparinized blood collecting tubes (Sarstedt, Germany). To isolate RBCs, the whole blood was centrifuged for 15 minutes at 300 × g, followed by removal of the plasma. The RBCs were then washed three times with 1 × PBS (RBC pelleting with 15 minutes at 300 × g). The resulting RBCs were then resuspended in PBS at 4% (v/v).
For the analysis, 200 μl of RBC suspension was added to 200 μl of peptide solution or peptide/pDNA complexes in 5% glucose (final RBC concentration 2%) and gently vortexed. The peptide/pDNA complexes were prepared using a fixed 1 μg of pDNA and varying amount of the peptide. Following this, samples were incubated for 1 hour at 37 °C with gentle stirring. After incubation, the RBCs were pelleted (15 minutes at 300 × g) and the amount of hemoglobin in the supernatant was assessed by measuring the absorbance at 540 nm using a 96-well microplate reader. The experiments were conducted in triplicates.
100% of hemolysis was defined as the RBCs treated with 0.1% Triton-X100 in PBS and 0% was obtained with cells incubated in 5% glucose solution. % of hemolysis was calculated by the formula: % Hemolysis = [(Asample − Aglucose)/Atriton − Aglucose)] × 100.

proteinase K = molecular target: T1, proteinase K (Parengyodontium album, UniProt P06873); assay: Proteinase K treatment of CPP/pDNA complexes; format: in vitro ADME; settings: 26 °C; for Proteinase K: t1/2 (min) of the complexed pDNA (95%CI): CPP/pDNA complexes at N/P2 in MQ, proteinase K ~2.4 U per well, accessible pDNA by PicoGreen fluorescence, normalized to free pDNA; for stability of the complexes against proteinase K (in words): CPP/pDNA complexes at N/P2, accessible pDNA over time by intercalating dye
T1 construct: purchased Thermo Scientific
T1 sequence (P06873 106-384): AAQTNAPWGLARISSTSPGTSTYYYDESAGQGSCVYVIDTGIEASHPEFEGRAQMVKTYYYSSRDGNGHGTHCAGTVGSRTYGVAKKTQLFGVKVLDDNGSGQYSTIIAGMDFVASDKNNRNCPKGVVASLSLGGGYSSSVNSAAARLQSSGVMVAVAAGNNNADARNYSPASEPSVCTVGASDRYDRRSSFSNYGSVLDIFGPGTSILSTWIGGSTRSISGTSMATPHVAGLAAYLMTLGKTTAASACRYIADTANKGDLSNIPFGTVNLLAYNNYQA
Protocol: For the proteinase K treatment, 30 μl of pre-formed CPP/pDNA complex solution (0.3, 0.2, 0.1 and 0.05 µg of pDNA per sample) or CPP in MQ was transferred to a black 96-well plate and 90 µl of MQ was added. After a short period of mixing, fluorescent DNA intercalating dye dilution was added (Quant-iT™ PicoGreen®, ThermoFisher Scientific) and incubated for 5 minutes at room temperature. The fluorescence was measured (Synergy MX, BioTek; λex 492 and λem 535) to quantify the initial accessibility of pDNA. Thereafter 10 μl of Proteinase K (Thermo Scientific) was added with the final enzyme concentration ~2.4 U per well. Fluorescence was measured over an indicated period at 26 °C. The readings were normalized against the fluorescence of free pDNA.

[1] = Complex stability in FBS, gel shift assay; settings: 37 °C; for pDNA migration from complexes after 48 h in serum (in words): serum and/or triton + heparin dissociation
Protocol: Then the samples were mixed with the DNA loading dye and electrophoresed exactly as stated above in the Gel shift assay description, using 0.1 µg of pDNA per lane. ZipRuler Express DNA Ladder 2 (ThermoFisher Scientific) was added to each gel.
The stability of the complexes after incubation in FBS, visualized by gel shift assay.

[2] = naked peptide in 5% glucose, mouse RBC 2% final in PBS, hemoglobin absorbance 540 nm, 100% = 0.1% Triton X-100, read-out: EC50 (μM) of CPP (membrane activity, concentration required to lyse 50% of the cells)
[3] = peptide/pDNA complexes, fixed 1 μg pDNA and varying peptide, mouse RBC 2% final, absorbance 540 nm, read-out: EC50 (μM) of CPP/pDNA (membrane activity)

Row | Structure (SMILES) | EC50 (mouse RBC; [2]) [µM] | EC50 (mouse RBC; [3]) [µM] | Proteinase K: t1/2 (min) of the complexed pDNA (95%CI) (proteinase K) | pDNA migration from complexes after 48 h in serum (in words) ([1]; 50% FBS) | stability of the complexes against proteinase K (in words) (proteinase K) | time to pDNA degradation (DNA smear) in serum ([1]; 50% FBS, EtBr) | onset of DNA migration from complexes in serum ([1]; complexes N/P2 (jetPEI N/P8) in 50% FBS, EtBr) [h]
1 | CCCCCCCCCCCCCCCCCC(=O)N[C@@H](C)C(=O)NCC(=O)N[C@@H](Cc1ccc(O)cc1)C(=O)N[C@@H](CC(C)C)C(=O)N[C@@H](CC(C)C)C(=O)NCC(=O)N[C@@H](CCCCN)C(=O)N[C@@H](CC(C)C)C(=O)N[C@@H](CC(C)C)C(=O)N[C@@H](CCCN)C(=O)N[C@@H](CCCN)C(=O)N[C@@H](CC(C)C)C(=O)N[C@@H](C)C(=O)N[C@@H](CCCN)C(=O)N[C@@H](CCCN)C(=O)N[C@@H](C)C(=O)N[C@@H](CC(C)C)C(=O)N[C@@H](CCCN)C(=O)N[C@@H](CCCN)C(=O)N[C@@H](CC(C)C)C(=O)N[C@@H](CC(C)C)C(N)=O [PF14-O] (Stearoyl-AGYLLGKLL[Orn][Orn]LA[Orn][Orn]AL[Orn][Orn]LL-NH2) | 0.6 | 1.17 | 94.2 (90.7 ± 97.4) min | migration of pDNA from some of the complexes could be observed | – | – | –
2 | CCCCCCCCCC(=O)N[C@@H](C)C(=O)NCC(=O)N[C@@H](Cc1ccc(O)cc1)C(=O)N[C@@H](CC(C)C)C(=O)N[C@@H](CC(C)C)C(=O)NCC(=O)N[C@@H](CCCCN)C(=O)N[C@@H](CC(C)C)C(=O)N[C@@H](CC(C)C)C(=O)N[C@@H](CCCN)C(=O)N[C@@H](CCCN)C(=O)N[C@@H](CC(C)C)C(=O)N[C@@H](C)C(=O)N[C@@H](C)C(=O)N[C@@H](C)C(=O)N[C@@H](C)C(=O)N[C@@H](CC(C)C)C(=O)N[C@@H](CCCN)C(=O)N[C@@H](CCCN)C(=O)N[C@@H](CC(C)C)C(=O)N[C@@H](CC(C)C)C(N)=O [C10-PF14] (Decanoyl-AGYLLGKLL[Orn][Orn]LAAAAL[Orn][Orn]LL-NH2) | 0.36 | 0.86 | 26.7 (20.1 ± 32.5) min | less migration and less degradation | – | – | –
3 | CCCCCCCCCCCCCCCCCCCCCC(=O)N[C@@H](C)C(=O)NCC(=O)N[C@@H](Cc1ccc(O)cc1)C(=O)N[C@@H](CC(C)C)C(=O)N[C@@H](CC(C)C)C(=O)NCC(=O)N[C@@H](CCCCN)C(=O)N[C@@H](CC(C)C)C(=O)N[C@@H](CC(C)C)C(=O)N[C@@H](CCCN)C(=O)N[C@@H](CCCN)C(=O)N[C@@H](CC(C)C)C(=O)N[C@@H](C)C(=O)N[C@@H](CCCN)C(=O)N[C@@H](CCCN)C(=O)N[C@@H](C)C(=O)N[C@@H](CC(C)C)C(=O)N[C@@H](CCCN)C(=O)N[C@@H](CCCN)C(=O)N[C@@H](CC(C)C)C(=O)N[C@@H](CC(C)C)C(N)=O [C22-PF14-O] (Docosanoyl-AGYLLGKLL[Orn][Orn]LA[Orn][Orn]AL[Orn][Orn]LL-NH2) | – | – | – | migration of pDNA from some of the complexes could be observed | virtually inaccessible to the enzyme | – | –
4 | CCCCCCCCCCCCCCCCCC(=O)N[C@@H](C)C(=O)NCC(=O)N[C@@H](Cc1ccc(O)cc1)C(=O)N[C@@H](CC(C)C)C(=O)N[C@@H](CC(C)C)C(=O)NCC(=O)N[C@@H](CCCCN)C(=O)N[C@@H](CC(C)C)C(=O)N[C@@H](CC(C)C)C(=O)N[C@@H](CCC(=O)O)C(=O)N[C@@H](CCCN)C(=O)N[C@@H](CC(C)C)C(=O)N[C@@H](C)C(=O)N[C@@H](C)C(=O)N[C@@H](C)C(=O)N[C@@H](C)C(=O)N[C@@H](CC(C)C)C(=O)N[C@@H](CCCN)C(=O)N[C@@H](CCCN)C(=O)N[C@@H](CC(C)C)C(=O)N[C@@H](CC(C)C)C(N)=O [PF14-E] (Stearoyl-AGYLLGKLLE[Orn]LAAAAL[Orn][Orn]LL-NH2) | 0.67 | 2.36 | 16.7 (10.5 ± 21.8) min | – | – | – | –
5 | CCCCCCCCCCCCCCCCCCCCCC(=O)N[C@@H](C)C(=O)NCC(=O)N[C@@H](Cc1ccc(O)cc1)C(=O)N[C@@H](CC(C)C)C(=O)N[C@@H](CC(C)C)C(=O)NCC(=O)N[C@@H](CCCCN)C(=O)N[C@@H](CC(C)C)C(=O)N[C@@H](CC(C)C)C(=O)N[C@@H](CCCN)C(=O)N[C@@H](CCCN)C(=O)N[C@@H](CC(C)C)C(=O)N[C@@H](C)C(=O)N[C@@H](C)C(=O)N[C@@H](C)C(=O)N[C@@H](C)C(=O)N[C@@H](CC(C)C)C(=O)N[C@@H](CCCN)C(=O)N[C@@H](CCCN)C(=O)N[C@@H](CC(C)C)C(=O)N[C@@H](CC(C)C)C(N)=O [C22-PF14] (Docosanoyl-AGYLLGKLL[Orn][Orn]LAAAAL[Orn][Orn]LL-NH2) | 0.64 | 1.47 | 162.7 (159.6 ± 166.7) min | less migration and less degradation | – | – | –
6 | CC(C)C[C@H](NC(=O)[C@H](CC(C)C)NC(=O)[C@H](CCCN)NC(=O)[C@H](CCCN)NC(=O)[C@H](CC(C)C)NC(=O)[C@H](C)NC(=O)[C@H](C)NC(=O)[C@H](C)NC(=O)[C@H](C)NC(=O)[C@H](CC(C)C)NC(=O)[C@H](CCCN)NC(=O)[C@H](CCCN)NC(=O)[C@H](CC(C)C)NC(=O)[C@H](CC(C)C)NC(=O)[C@H](CCCCN)NC(=O)CNC(=O)[C@H](CC(C)C)NC(=O)[C@H](CC(C)C)NC(=O)[C@H](Cc1ccc(O)cc1)NC(=O)CNC(=O)[C@H](C)N)C(N)=O [C0-PF14] (H-AGYLLGKLL[Orn][Orn]LAAAAL[Orn][Orn]LL-NH2) | 5.36 | 7.09 | 0.5 (−0.8 ± 1.5) min | – | clearly a favorable substrate to the proteinase | about 24 h | ≤ 0.5
